Patent publication US12281107B2, “SET8 lysine methyltransferase inhibitor and preparation method and application thereof” (HAINAN YILING MEDICAL INDUSTRY & DEVELOPMENT Co., Ltd., priority 2019, dated 2025)

Legend:
[1] = system: glioma cell line SH-SY5Y; assay: CCK-8 cell proliferation inhibition test, SH-SY5Y; assay type: cell-based; conditions: Homo sapiens, 48 h; for inhibition at 100 µM: read-out: IC % for 100 μM; for IC50: CCK-8
Description: (§1) 1. Experimental Method: […] cell line SH-SY5Y, colorectal cancer cell line SW480 and liver cancer cell line HepG2 are respectively cultured in an RPMI-1640 medium containing 10% calf serum at 37° C. in a 5% CO2 incubator. The […] method is adopted for cell proliferation inhibition test, and the main operation is as follows: taking the tumor cell line in the logarithmic phase, digesting with 0.25% trypsin, preparing an RPMI-1640 medium containing 10% newborn calf serum into a cell suspension of 6×10^4 cells/mL, and inoculating the cell suspension into a 96-well plate, with 100 μL per well. Culturing at 37° C. and 5% CO2 saturated humidity for 12 h. After adherence, absorbing the culture supernatants in the wells, and adding the sample solution prepared from the RPMI-1640 medium containing 1% calf serum to each well so that the final concentrations of the samples are 100 μM, 30 μM, 10 μM, 3 μM, 1 μM, and 0.3 μM respectively. With 3 wells in parallel for each concentration, continuing culturing for 48 h, then adding 10 μL of CCK-8 solution (Dalian Meilun, MA0218) to each well, and continuing incubating at 37° C. and 5% CO2 for 4 h. Selecting 470 nm on the enzyme-linked immunosorbent assay apparatus to measure the light absorption value of each well, and setting a blank group (only adding a culture solution containing cells) and a control group (using the culture solution to replace drugs) to calculate the cell proliferation inhibition rate. Inhibition rate (%)=(1−average OD value of 3 wells in experimental group/average OD value of 3 wells in control group)×100%. With the inhibition rate as an ordinate, a regression curve is drawn to calculate the IC50 value of the sample. Graphpad prism 7.0 software are adopted for data processing and statistical analysis by.

[2] = molecular target: T1, lysine methyltransferase SET8 (Homo sapiens, UniProt Q9NQR1); assay: SET8 methyltransferase inhibitor screening assay kit (Cayman), fluorescence; assay type: biochemical; conditions: incubation at 37° C. for 10 min; inhibitor concentration not given
T1 construct: purchased Cayman Company
T1 sequence (Q9NQR1 1-393): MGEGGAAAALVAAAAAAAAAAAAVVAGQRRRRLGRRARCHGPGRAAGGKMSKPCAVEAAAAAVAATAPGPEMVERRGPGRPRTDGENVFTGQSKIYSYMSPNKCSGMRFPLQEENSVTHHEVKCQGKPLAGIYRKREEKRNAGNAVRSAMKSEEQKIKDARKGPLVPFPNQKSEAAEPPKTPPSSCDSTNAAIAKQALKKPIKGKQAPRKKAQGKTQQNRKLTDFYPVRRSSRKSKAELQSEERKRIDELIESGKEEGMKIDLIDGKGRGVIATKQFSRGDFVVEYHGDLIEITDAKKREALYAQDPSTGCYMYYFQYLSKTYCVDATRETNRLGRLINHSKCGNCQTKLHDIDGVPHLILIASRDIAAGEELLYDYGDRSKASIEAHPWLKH
Description: The steps of activity detection are completely based on the SET8 methyltransferase inhibitor screening assay kit of Cayman Company. In short, reagents in the kit are added to the 96-well plate to be tested according to the Table A below.
Then 10 μL of SET8 albumen protein is added to each well, and the reaction begins. After incubation at 37° C. for 10 min, the fluorescence intensity (A) value is measured at the excitation wavelength of 535 nm and the […] of 590 nm. the inhibition rate of the compound is calculated according to the following formula: Inhibition rate %=(Anormal−Asample)/)Normal*100%, and the inhibition rate of each inhibitor on lysine methyltransferase is shown in Table 1.

[3] = system: colorectal cancer cell line SW480; assay: CCK-8 cell proliferation inhibition test, SW480; assay type: cell-based; conditions: for IC50: Homo sapiens, SW480, 48 h, CCK-8; for IC % for 100 μM: SW480, 100 μM, 48 h; for tumor cell proliferation inhibitory activity (in words): SW480, summary of Table 2
Description: as §1

[4] = system: liver cancer cell line HepG2; assay: CCK-8 cell proliferation inhibition test, HepG2; assay type: cell-based; conditions: for IC % for 100 μM: HepG2, 100 μM, 48 h; for tumor cell proliferation inhibitory activity (in words): HepG2, summary of Table 2; for IC50: Homo sapiens, HepG2, 48 h, CCK-8
Description: as §1

SMILES	IC50 [1] [µM]	Inhibition Rate (%) [2] [%]	IC50 [3] [µM]	IC50 [4] [µM]	inhibition at 100 µM [1] [%]	IC % for 100 μM [3] [%]	tumor cell proliferation inhibitory activity (in words) [3]	IC % for 100 μM [4] [%]	tumor cell proliferation inhibitory activity (in words) [4]
COc1ccc(Cc2nc(C3CN(Cc4ccccc4)CCO3)n(C3CCN(C)CC3)n2)cc1 (stereo not drawn) [Compound 9, 4-benzyl-2-(3-(4-methoxybenzyl)-1-(1-methylpiperidin-4-yl)-1H-1,2,4-triazol-5-yl)morpholine]	77.3	72.3	–	–	58.5	–	–	–	–
COc1ccc(Cc2nc(C3CCCCO3)n(C3CCN(C)CC3)n2)cc1 (stereo not drawn) [Compound 10, 4-(3-(4-methoxybenzyl)-5-(tetrahydro-2H-pyran-2-yl)-1H-1,2,4-triazol-5-yl)-1-methylpiperidin]	123	43.6	–	–	43.3	–	–	–	–
COc1ccc(Cc2nc(CN)n(C3CCN(C)CC3)n2)cc1 [Compound 11, (3-(4-methoxybenzyl)-1-(1-methylpiperidin-4-yl)-1H-1,2,4-triazol-5-yl)methylamine]	132	36.8	–	–	39.9	–	–	–	–
COc1ccc(Cc2nc(C3CCCCO3)n(Cc3ccc(OC)cc3)n2)cc1 (stereo not drawn) [Compound 12, 1,3-bis(4-methoxybenzyl)-5-(tetrahydro-2H-pyran-2-yl)-1H-1,2,4-triazole]	71.8	67.8	–	–	60.1	–	–	–	–
COc1ccc(Cn2nc(-c3ccccc3)nc2C2CNCCO2)cc1 (stereo not drawn) [Compound 13, 2-(1-(4-methoxybenzyl)-3-phenyl-1H-1,2,4-triazol-5-yl)morpholine]	138	32.5	–	–	37.8	–	–	–	–
CN1CCC(n2nc(Cc3ccccc3)nc2C2CNCCO2)CC1 (stereo not drawn) [Compound 14, 2-(3-benzyl-1-(1-methylpiperidin-4-yl)-1H-1,2,4-triazol-5-yl)morpholine]	92.5	59.2	–	–	53.2	–	–	–	–
CN1CCC(n2nc(-c3ccccc3)nc2C2CNCCO2)CC1 (stereo not drawn) [Compound 15, 2-(1-(1-methylpiperidin-4-yl)-3-phenyl-1H-1,2,4-triazol-5-yl)morpholine]	95.3	53.9	–	–	52.3	–	–	–	–
Cc1ccc(-c2nc(C3CNCCO3)n(C3CCN(C)CC3)n2)cc1 (stereo not drawn) [Compound 16, 2-(1-(1-methylpiperidin-4-yl)-3-(p-methylphenyl)-1H-1,2,4-triazol-5-yl)morpholine]	93.7	54.8	–	–	52.8	–	–	–	–
Cc1cccc(-c2nc(C3CNCCO3)n(C3CCN(C)CC3)n2)c1 (stereo not drawn) [Compound 17, 2-(1-(1-methylpiperidin-4-yl)-3-(m-methylphenyl)-1H-1,2,4-triazol-5-yl)morpholine]	92.1	58.3	–	–	53.7	–	–	–	–
COc1ccc(Cc2nc(C3CCCCC3)n(C3CCN(C)CC3)n2)cc1 [Compound 18, 4-(5-cyclohexyl-3-(4-methoxybenzyl)-1H-1,2,4-triazol-5-yl)-1-methylpiperidin]	126	43.8	–	–	41.9	–	–	–	–
COc1ccc(Cc2nc(C(C)(C)C)n(C3CCN(C)CC3)n2)cc1 [Compound 19]	118	45.2	–	–	44.8	–	–	–	–
COc1ccc(Cc2nc(C)n(C3CCN(C)CC3)n2)cc1 [Compound 20]	10.4	76.9	11.3	13.6	84.7	79.6	good tumor cell proliferation inhibitory activity	68.7	good tumor cell proliferation inhibitory activity
COc1ccc(Cc2nc(C3CCCCC3)n(Cc3ccc(OC)cc3)n2)cc1 [Compound 21, 5-cyclohexyl-1,3-dis(4-methoxybenzyl)-1H-1,2,4-triazole]	114	43.7	–	–	46.2	–	–	–	–

Now from value to compound, other results behind:

IC50 [1] [µM]	Inhibition Rate (%) [2] [%]	IC50 [3] [µM]	IC50 [4] [µM]	SMILES	inhibition at 100 µM [1] [%]	IC % for 100 μM [3] [%]	tumor cell proliferation inhibitory activity (in words) [3]	IC % for 100 μM [4] [%]	tumor cell proliferation inhibitory activity (in words) [4]
94.7	58.4	–	–	COc1ccc(Cc2nc(C3CNCCO3)n(C3CCN(C)CC3)n2)cc1 (stereo not drawn) [Compound 1, 2-(3-(4-methoxybenzyl)-1-(1-methylpiperidin-4-yl)-1H-1,2,4-triazol-5-yl)morpholine]	52.5	–	–	–	–
13.7	74.2	16.4	17.6	COc1ccc(Cc2nc(C3CNCCO3)n(Cc3ccc(OC)cc3)n2)cc1 (stereo not drawn) [Compound 2, 2-(1,3-bis(4-methoxybenzyl)-1H-1,2,4-triazol-5-yl)morpholine]	78.3	75.8	good tumor cell proliferation inhibitory activity	51.5	good tumor cell proliferation inhibitory activity
22.6	70.0	18.3	19.2	COc1ccc(Cc2nc(C3CNCCO3)n(C3CCCCC3)n2)cc1 (stereo not drawn) [Compound 3, 2-(1-cyclohexyl-3-(4-methoxybenzyl)-1H-1,2,4-triazol-5-yl)morpholine]	76.5	73.2	good tumor cell proliferation inhibitory activity	48.8	good tumor cell proliferation inhibitory activity
78.6	71.5	–	–	COc1ccc(Cc2nc(C3CNCCO3)n(-c3ccccc3)n2)cc1 (stereo not drawn) [Compound 4, 2-(3-(4-methoxybenzyl)-1-phenyl-1H-1,2,4-triazol-5-yl)morpholine]	57.8	–	–	–	–
81.3	70.2	–	–	COc1ccc(Cc2nc(C3CNCCO3)n(-c3cccc(C)c3)n2)cc1 (stereo not drawn) [Compound 5, 2-(3-(4-methoxybenzyl)-1-(m-methylphenyl)-1H-1,2,4-triazol-5-yl)morpholine]	57.1	–	–	–	–
76.5	70.3	–	–	COc1ccc(Cc2nc(C3CNCCO3)n(-c3ccccn3)n2)cc1 (stereo not drawn) [Compound 6, 2-(3-(4-methoxybenzyl)-1-(pyridin-2-yl)-1H-1,2,4-triazol-5-yl)morpholine]	58.6	–	–	–	–
78.4	70.8	–	–	COc1ccc(Cc2nc(C3CNCCO3)n(-c3cnccn3)n2)cc1 (stereo not drawn) [Compound 7, 2-(3-(4-methoxybenzyl)-1-(pyrazin-2-yl)-1H-1,2,4-triazol-5-yl)morpholine]	57.9	–	–	–	–
73.1	69.3	–	–	COc1ccc(Cc2nc(C3CNCCO3)n(C)n2)cc1 (stereo not drawn) [Compound 8, 2-(3-(4-methoxybenzyl)-1-methyl-1H-1,2,4-triazol-5-yl)morpholine]	59.5	–	–	–	–
